Measurements from US6441023B1 (American Home Products Corporation, priority 1997, dated 2002).
Where a name gives a salt, the structure may show the parent alone.

Experiments:
TACE = biological target: T1, TACE (Homo sapiens, UniProt P78536); test: Procedure for measuring TACE inhibition; assay type: biochemical; conditions: for IC50: read-out: TACE IC 50; for inhibition at 10 µM: read-out: TACE % inhibition at 10 micromolar (*)
T1 construct: purchased Immunex
Description: Using 96-well black microtiter plates, each well receives a solution composed of 10 μL TACE (Inmunex, final concentration 1 μg/mL), 70 μL Tris buffer, pH 7.4 containing 10% glycerol (final concentration 10 mM), and 10 μL of test compound solution in DMSO ([…], DMSO concentration <1%) and incubated for 10 minutes at room temperature. The reaction is initiated by addition of a fluorescent peptidyl substrate (final concentration 100 μM to each well and then shaking on a shaker for 5 sec.
The reaction is read (excitation 340 nm, emission 420 nm) for 10 min. and the increase in fluorescence over time is plotted as a linear line. The slope of the line is calculated and represents the reaction rate.
The mean (xtsem) of the control rate is calculated and compared for statistical significance (p<0.05) with drug-treated rates using Dunnett's multiple comparison test.

MMP 1 = biological target: T2, MMP 1 (Homo sapiens, UniProt P03956); test: In vitro collagenase assay (human recombinant fibroblast collagenase); assay type: biochemical; conditions: read-out: MMP 1 IC 50
T2 construct: human recombinant fibroblast collagenase (truncated, mw=18,828, WAR, Radnor)
T2 sequence (P03956 100-269 limits assumed): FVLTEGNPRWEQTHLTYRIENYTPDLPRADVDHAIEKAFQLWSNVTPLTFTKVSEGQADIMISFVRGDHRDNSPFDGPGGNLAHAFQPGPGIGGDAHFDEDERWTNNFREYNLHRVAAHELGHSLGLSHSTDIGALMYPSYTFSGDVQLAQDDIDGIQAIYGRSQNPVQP
Description: The assay is based on the cleavage of a peptide substrate ((Dnp-Pro-Cha-Gly-Cys(iNe)-His-Ala-Lys(NMa)-NH2), Peptide International, Inc.) by collag,enase releasing the fluorescent NMa group which is quantitated on the fluorometer. Dnp quenches the NiIa fluorescence in the intact substrate. […] Substrate is dissolved in methanol and stored frozen in 1 mM aliquots. Collagenase is stored frozen in buffer in 25 µM aliquots. For the assay, substrate is dissolved in HCBC buffer to a final concentration of 10 μM and collagenase to a final concentration of 5 nM. Compounds are dissolved in methanol, DMSO, or HCBC. The methanol and DMSO are diluted in HCBC to <1.0%. Compounds are added to the 96 well plate containing enzyme and the reaction is started by the addition of substrate.
The slope of the line is calculated and represents the reaction rate.
The mean (x±sem) of the control rate is calculated and compared for statistical significance (p<0.05) with drug-treated rates using Dunnett's multiple comparison test.

MMP 13 = MMP 13 (Homo sapiens, UniProt P45452); test: MMP 13 inhibition (manual); assay type: biochemical; conditions: read-out: MMP 13 IC 50
MMP 9 = biological target: T3, MMP 9 (Homo sapiens, UniProt P14780); test: In vitro gelatinase assay (human neutrophil gelatinase B); assay type: biochemical; conditions: read-out: MMP 9 IC 50
T3 construct: from tissue; host or cells: human neutrophils
Description: The assay is based on the cleavage of the thiopeptide substrate ((Ac-Pro-Leu-Gly(2 mercapto-4 methyl-pentanoyl)-Leu-Gly-OEt), Bachem Bioscience) by the enzyme, gelatinase, releasing the substrate product which reacts calorimetrically with DTNB ((5,5′-dithio-bis(2-nitro-benzoic acid)). The enzyme activity is measured by the rate of the color increase.
The thiopeptide substrate is made up fresh as a 20 mM stock in 100% DMSO and the DTNB is dissolved in 100% DMSO as a 100 mM stock and stored in dark at room temperature. Both the substrate and DTNB are diluted together to 1 mM with substrate buffer (50 mM HEPES pH 7.5, 5 mM CaCl2) before use. The stock of human neutrophil gelatinase B is diluted with assay buffer (50 mnM HEPES pH 7.5, 5 mM CaCl2, 0.02% Brij) to a final concentration of 0.15 mnM.
The increase in OD405 is plotted and the slope of the line is calculated which represents the reaction rate.

T3 sequence (P14780 94-707): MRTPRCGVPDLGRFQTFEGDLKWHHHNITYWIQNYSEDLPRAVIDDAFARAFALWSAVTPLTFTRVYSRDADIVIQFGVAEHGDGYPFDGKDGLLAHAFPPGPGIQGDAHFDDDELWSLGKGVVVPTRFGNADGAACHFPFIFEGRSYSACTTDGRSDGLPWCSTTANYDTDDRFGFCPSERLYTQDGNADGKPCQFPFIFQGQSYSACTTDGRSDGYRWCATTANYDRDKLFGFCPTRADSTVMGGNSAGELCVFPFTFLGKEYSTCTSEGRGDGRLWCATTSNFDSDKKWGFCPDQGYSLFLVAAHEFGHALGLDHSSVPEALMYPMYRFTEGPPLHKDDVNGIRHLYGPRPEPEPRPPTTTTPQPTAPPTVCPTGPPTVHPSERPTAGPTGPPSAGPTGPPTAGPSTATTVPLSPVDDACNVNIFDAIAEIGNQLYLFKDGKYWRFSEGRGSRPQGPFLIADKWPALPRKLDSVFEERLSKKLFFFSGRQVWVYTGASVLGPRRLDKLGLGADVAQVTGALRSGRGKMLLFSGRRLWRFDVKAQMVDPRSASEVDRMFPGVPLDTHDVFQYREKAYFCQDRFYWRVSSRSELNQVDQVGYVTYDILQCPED
T1 sequence (P78536 215-824): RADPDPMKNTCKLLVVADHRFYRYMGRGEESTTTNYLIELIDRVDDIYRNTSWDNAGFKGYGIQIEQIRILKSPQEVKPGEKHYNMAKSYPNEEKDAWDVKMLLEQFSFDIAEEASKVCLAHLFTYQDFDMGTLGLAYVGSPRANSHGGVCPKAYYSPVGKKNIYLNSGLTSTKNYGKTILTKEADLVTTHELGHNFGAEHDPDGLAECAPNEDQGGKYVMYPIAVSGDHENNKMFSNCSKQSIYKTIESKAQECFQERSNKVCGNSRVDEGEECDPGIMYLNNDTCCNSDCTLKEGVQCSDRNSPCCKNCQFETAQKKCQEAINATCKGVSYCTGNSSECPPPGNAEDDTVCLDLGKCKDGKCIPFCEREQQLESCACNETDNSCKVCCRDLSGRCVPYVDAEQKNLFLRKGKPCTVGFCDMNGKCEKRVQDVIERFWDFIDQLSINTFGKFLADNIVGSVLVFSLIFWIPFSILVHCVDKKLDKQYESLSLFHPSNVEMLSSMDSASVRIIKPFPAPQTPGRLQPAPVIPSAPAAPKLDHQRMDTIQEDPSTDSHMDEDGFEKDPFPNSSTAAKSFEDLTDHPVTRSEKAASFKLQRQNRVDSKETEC

Row | melting point [°C] | Structure (SMILES) | IC50 (TACE) [µM] | IC50 (MMP 1) [µM] | IC50 (MMP 13) [µM] | IC50 (MMP 9) [µM] | inhibition at 10 µM (TACE) [%]
1 |  | CCCCOc1ccc(S(=O)(=O)C2(C(=O)NO)CCN(Cc3ccncc3)CC2)cc1 [Example 269, 4-(4-Butoxy-benzenesulfonyl)-1-pyridin-4-ylmethyl-piperidine-4-carboxylic acid hydroxamide] | 0.296 | 2.07 | 0.0014 | 0.0022 | 
2 |  | CCCCCC(C(=O)NO)[S+]([O-])c1ccc(OC)cc1 (single isomer, unassigned) [Example 81b, 2S*-(4-methoxy-phenyl-R*-sulfinyl)-heptanoic acid hydroxyamide] | 0.228 | 3.76 | 0.0157 | 0.154 | 
3 | 214 | COc1ccc(S(=O)(=O)C2(C(=O)NO)CCN(Cc3ccc(-c4ccccn4)cc3)CC2)cc1 (as salt: HCl) [Example 262, 4-(4-methoxy-benzenesulfonyl)-1-(4-pyridin-2-yl-benzyl)-piperidine-4-carboxylic acid hydroxyamide] |  |  |  |  | 
4 | 172 | Cc1ccc(CN2CCC(C(=O)NO)(S(=O)(=O)c3ccc(OCc4ccc(Cl)cc4)cc3)CC2)cc1 (as salt: HCl) [Example 266, [4-(4-Chloro-benzyloxy)-benzenesulfonyl]-1-(4-methylbenzyl)-piperidine-4-carboxylic acid hydroxamide] |  |  |  |  | 
5 | 52 | CN1CCC(C(=O)NO)(S(=O)(=O)c2ccc(Oc3ccc(Cl)cc3)cc2)CC1 (as salt: HCl) [Example 249, 4-[4-(4-chloro-phenoxy)-benzenesulfonyl]1-methyl-piperidine-4-carboxylic acid hydroxyamide] |  |  |  |  | 
6 |  | CCCCN1CCC(C(=O)NO)(S(=O)(=O)c2ccc(OCCC(C)C)cc2)CC1 [Example 256, 1 -Butyl-4-[4-(3-methyl-butoxy)-benzenesulfonyl]-piperidine-4-carboxylic acid hydroxyamide] |  | 10 | 0.0029 | 0.0072 | 43
7 |  | CCCCOc1ccc(S(=O)(=O)C2(C(=O)NO)CCN(Cc3ccc(Cl)c(Cl)c3)CC2)cc1 [Example 263, 1-(3,4-Dichlorobenzyl)-4-(4-butoxy-benzenesulfonyl)-piperidine-4-carboxylic acid hydroxyamide] |  | 3.67 | 0.0052 | 0.0203 | 57.7
8 |  | CCCCOc1ccc(S(=O)(=O)C2(C(=O)NO)CCN(Cc3ccc(C)cc3)CC2)cc1 [Example 267, 4-(4-Butoxy-benzenesulfonyl)-1-(4-methylbenzyl)-piperidine-4-carboxylic acid hydroxamide] | 0.508 | 3.62 | 0.0023 | 0.0054 | 
9 | 90 to 95 | COc1ccc(S(=O)(=O)C2(C(=O)NO)CCN(Cc3ccccc3)CC2)cc1 [Example 83, 1-Benzyl-4-(4-methoxy-benzenesulfonyl)-piperidine-4carboxylic Acid hydroxyamide] |  |  |  |  | 
10 | 150 | CC#CCC(Cc1cccnc1)(C(=O)NO)S(=O)(=O)c1ccc(F)cc1 (stereo not drawn) [Example 76, 2-(4-Fluoro-benzenesulfonyl)-2-pyridin-3-ylmethyl-hex4-ynoic acid hydroxyamide] |  |  |  |  | 
11 |  | CCN1CCC(C(=O)NO)(S(=O)(=O)c2ccc(Oc3ccc(Cl)cc3)cc2)CC1 [Example 250, 4-[4-(4-chloro-phenoxy)-benzenesulfonyl]1-ethyl-piperidine-4-carboxylic acid hydroxyamide] | 0.413 | 1.72 | 0.0008 | 0.0016 | 
12 |  | CCC(CC)COc1ccc(S(=O)(=O)C2(C(=O)NO)CCN(Cc3ccccc3)CC2)cc1 [Example 259, 1-Benzyl4-[4-(2-ethyl-butoxy)-benzenesulfonyl]-piperidine-4-carboxylic acid hydroxyamide] |  | 3.16 | 0.0053 | 0.0143 | 39
13 | 78 | COc1ccc(S(=O)(=O)C(Cc2cccnc2)(CC(C)C)C(=O)NO)cc1 (stereo not drawn) [Example 66, 2-(4-Methoxy-benzenesulfonyl)-4-methyl-2-pyrdin-3-yh nethyl-pentoic acid hydroxyamide] |  |  |  |  | 
14 |  | CN1CCC(C(=O)NO)(S(=O)(=O)c2ccc(OCc3ccc(Cl)cc3)cc2)CC1 [Example 264, [4-(4-Chloro-benzyloxy)benzenesulfonyl]-1-methylpiperidine-4-carboxylic acid hydroxamide] | 0.182 | 4.29 | 0.0031 | 0.0029 | 
15 | 117.8 | CN1CCC(C(=O)NO)(S(=O)(=O)c2ccc(OCc3ccc(Cl)cc3)cc2)CC1 (as salt: HCl) [Example 264, [4-(4-Chloro-benzyloxy)benzenesulfonyl]-1-methylpiperidine-4-carboxylic acid hydroxamide] |  |  |  |  | 
16 |  | CCCCOc1ccc(S(=O)(=O)C2(C(=O)NO)CCN(Cc3ccc(C#N)cc3)CC2)cc1 [Example 268, 4-(4-Butoxy-benzenesulfonyl)-1-(4-cyano-benzyl)-piperidine-4-hydroxamide carboxylic acid hydroxamide] | 0.278 | 2.29 | 0.0011 | 0.0028 | 
17 |  | CCCCOc1ccc(S(=O)(=O)C2(C(=O)NO)CCN(Cc3cccc(Oc4ccccc4)c3)CC2)cc1 [Example 265, 4-(4-Butoxy-benzenesulfonyl)-1-(3-phenoxy-benzyl)-piperidine-4-carboxylic acid hydroxamide] | 1.04 | 1.94 | 0.0078 | 0.0093 | 
18 |  | CCCCN1CCC(C(=O)NO)(S(=O)(=O)c2ccc(Oc3ccc(Cl)cc3)cc2)CC1 [Example 251] | 0.301 | 1.07 | 0.0009 | 0.0008 | 

Row | Structure (SMILES) | melting point [°C] | IC50 (TACE) [µM] | IC50 (MMP 1) [µM] | IC50 (MMP 13) [µM] | IC50 (MMP 9) [µM] | inhibition at 10 µM (TACE) [%]
19 | CCCCOc1ccc(S(=O)(=O)C2(C(=O)NO)CCN(Cc3ccc(Cl)c(Cl)c3)CC2)cc1 (as salt: HCl) [Example 263, 1-(3,4-Dichlorobenzyl)-4-(4-butoxy-benzenesulfonyl)-piperidine-4-carboxylic acid hydroxyamide] | 256.8 |  |  |  |  | 
20 | CCCCOc1ccc(S(=O)(=O)C2(C(=O)NO)CCN(Cc3cccc(OCCN4CCOCC4)c3)CC2)cc1 (as salt: HCl) [Example 243, 4(4-Butoxy-benzenesulfonyl)-1-[3-(2-morpholinyl-1-ylthoxy)-benzyl]-piperidine-4-carboxylic acid hydroxyamide] | 123 |  |  |  |  | 
21 | CCCCOc1ccc(S(=O)(=O)C2(C(=O)NO)CCN(Cc3ccc(C)cc3)CC2)cc1 (as salt: HCl) [Example 267, 4-(4-Butoxy-benzenesulfonyl)-1-(4-methylbenzyl)-piperidine-4-carboxylic acid hydroxamide] | 137 |  |  |  |  | 
22 | CCCCOc1ccc(S(=O)(=O)C2(C(=O)NO)CCN(Cc3ccc(OCCN4CCCCC4)cc3)CC2)cc1 (as salt: HCl) [Example 242, 4-(4-Butoxy-benzenesulfonyl)-1-[4-(2-piperidin-1-yl-ethoxy)-benzyl]-piperidine-4-carboxylic acid hydroxyamide] | 155 |  |  |  |  | 
23 | CCCCOc1ccc(S(=O)(=O)C2(C(=O)NO)CCN(Cc3ccncc3)CC2)cc1 (as salt: HCl) [Example 269, 4-(4-Butoxy-benzenesulfonyl)-1-pyridin-4-ylmethyl-piperidine-4-carboxylic acid hydroxamide] | 118 |  |  |  |  | 
24 | CCCCOc1ccc(S(=O)(=O)C2(C(=O)NO)CCN(Cc3cccc(OC)c3)CC2)cc1 (as salt: HCl) [Example 260, 4-(4-butoxy-benzenesulfonyl)-1-(3-methoxy-benzyl)-piperidine-4-carboxylic acid hydroxyamide] | 137 |  |  |  |  | 
